Patent publication US4542123A (Massachusetts Institute of Technology, priority 1982, dated 1985)

Test: Plasma amino acid levels after glucose ingestion (Example I, Table 1)
Type: in vivo, human
Protocol: Six healthy, non-obese, fasting subjects each received, on different days 0, 6, 12.5, 25 or 50 g of glucose (Glucola) in a total volume of 100 ml.
Following a protocol approved by the Massachusetts Institute of Technology Committee on the Use of Humans as Experimental Subjects, 6 healthy volunteer outpatients, aged 25-33 years, participated in the study; 3 were males and 3 females. Mean weight was 60 kg for the women and 70 for the men; all subjects were within 10% of their ideal body weight as determined by Metropolitan Life Insurance Company tables. […] Subjects were asked to take meals rich in carbohydrate content (about 300 g/day) for 3 days before beginning the study. On 5 separate days, each subject fasted from 8 p.m. until 9 the next morning and then received a load of 0, 6, 12.5, 25 or 50 g of glucose (caffeine-free glucola) dissolved in water in a total volume of 100 ml; the order of doses was randomized. Venous blood samples were drawn from the antecubital vein through an indwelling catheter at 0, 60 and 120 min for all doses and additionally at 30 and 180 min for the 12.5, 25 and 50 g doses. Blood was collected in heparanized tubes; after centrifugation plasma was stored at -20° C. until analyzed. […] Glucose was analyzed spectrophotometrically after reaction with O-toluidine in hot acidic acid (Sigma Bulletin #635;15). Insulin was measured using a commercial radioimmunoassay kit by a double antibody method (Bio-RIA, Louisville, Ky.). Plasma tryptophan was measured fluorometrically on 20 μl plasma aliquots by the method of Denckla and Dewey, J. Lab. Clin. Med. 69: 160-169, 1967, as modified by Lehman, Scand. J. Clin. Lab. Invest. 28: 49-55, 1971. Branched-chain amino acids and aromatic amino acids were measured in 500 μl aliquots of plasma, deproteinized with sulfosalicylic acid, using a Beckman amino acid analyzer (Beckman Instruments, Palo Alto, Calif., Model 119C).
Data, given as means ±SE errors, were analyzed by two-way analysis of variance; factors compared were dose and time. The Scheffe test was employed to test the statistical significance of differences; p<0.05 was considered significant. Areas under the curves were evaluated by the method of trapezoid approximation. Student tests for paired data were used to evaluate the significance of changes in individual amino acids. Amino acid concentrations after treatments for each subject were also expressed as a percentage of that day's pretreatment levels; mean percent changes were then calculated for each treatment and time interval.
Sum of the LNAA: total concentration of leucine, isoleucine, valine,
the sum of the LNAA, measured 0, 60 and 120 min after 6 nonobese, fasting
subjects ingested 0, 6, 12.5, 25 or 50 g of glucose. All plasma amino
acids, except tryptophan, were measured on a Beckman amino acid analyzer.
Tryptophan was measured by the method of Denckla and Dewey. Data are
expressed as means ± S.E.M.

O=C[C@H](O)[C@@H](O)[C@H](O)[C@H](O)CO [Glucose, glucose]
Absolute leucine concentrations (6-50 g glucose): decreased significantly after 6-50 g | LNAA concentrations, some subjects (6 g of glucose): transiently decreased LNAA concentrations | All other amino acids (absolute concentrations) (12.5-50 g glucose): decreased significantly after 12.5-50 g | Relationship between rise in plasma insulin and fall in LNAA (areas under the curve) (12.5-50 g glucose, subjects 2 and 4, not robust for other subjects): clear inverse linear relationship | Decrease of plasma LNAA vs 0 and 6 g doses (25 and 50 g, 60 and 120 min, P<0.05): significantly greater than those following the 0 and 6 g doses | Decrease of branched-chain amino acids (50 g glucose, 120 min): 35-41% | Decrease of methionine (50 g glucose, 120 min): 31% | Decrease of phenylalanine and tyrosine (50 g glucose, 120 min): 29-31% | Decrease of tryptophan (50 g glucose, 120 min): 23% | Percent reduction in plasma LNAA, 50-g vs 25-g dose (50 g vs 25 g glucose): not consistently associated with a greater percent reduction in plasma LNAA | Absolute concentrations of amino acids, 50-g vs 25-g dose (50 g vs 25 g glucose, 120 min, zero-time LNAA also lower): lower absolute concentrations of the amino acids than the 25-g dose after 120 min | Plasma LNAA concentrations (percent of pre-treatment) (60 and 120 min): dose-related depression of plasma LNAA concentrations | Correlation (r) of glucose dose with mean percent decrease in LNAA (120 min, P<0.01): 0.80 | Decrease of branched-chain amino acids (after 50 g of glucose): 35-41% | Fall of plasma tyrosine concentrations (after 50 g of glucose): 23% | Ratio of plasma tyrosine to other plasma LNAA (after 50 g of glucose): increased significantly | Absolute isoleucine concentrations (after all treatments (0-50 g glucose)): decreased significantly with time after all treatments | Tyrosine/LNAA ratio (any glucose dose): did not change significantly | Plasma Iso level (glucose 6 g, 0 min): 60 ± 7 nmol/mL | Plasma LNAA (sum) (glucose 6 g, 0 min): 522 ± 47 nmol/mL | Plasma Leu level (glucose 6 g, 0 min): 113 ± 11 nmol/mL | Plasma Met level (glucose 6 g, 0 min): 24 ± 4 nmol/mL | Plasma Phe level (glucose 6 g, 0 min): 50 ± 3 nmol/mL | Plasma Trp level (glucose 6 g, 0 min): 46 ± 4 nmol/mL | Plasma Tyr level (glucose 6 g, 0 min): 57 ± 8 nmol/mL | Plasma Val level (glucose 6 g, 0 min): 220 ± 19 nmol/mL | Trp/LNAA (glucose 6 g, 0 min): .088 | Plasma Iso level (glucose 6 g, 60 min): 51 ± 4 nmol/mL | Plasma Leu level (glucose 6 g, 60 min): 100 ± 12 nmol/mL | Plasma Met level (glucose 6 g, 60 min): 21 ± 3 nmol/mL | Plasma Phe level (glucose 6 g, 60 min): 46 ± 2 nmol/mL | Plasma Trp level (glucose 6 g, 60 min): 43 ± 4 nmol/mL | Plasma Tyr level (glucose 6 g, 60 min): 51 ± 7 nmol/mL | Plasma Val level (glucose 6 g, 60 min): 201 ± 15 nmol/mL | Trp/LNAA (glucose 6 g, 60 min): .092 | Plasma Iso level (glucose 6 g, 120 min): 51 ± 5 nmol/mL | Plasma LNAA (sum) (glucose 6 g, 120 min): 471 ± 37 nmol/mL | Plasma Leu level (glucose 6 g, 120 min): 101 ± 9 nmol/mL | Plasma Met level (glucose 6 g, 120 min): 22 ± 3 nmol/mL | Plasma Phe level (glucose 6 g, 120 min): 47 ± 3 nmol/mL | Plasma Trp level (glucose 6 g, 120 min): 41 ± 4 nmol/mL | Plasma Tyr level (glucose 6 g, 120 min): 50 ± 6 nmol/mL | Plasma Val level (glucose 6 g, 120 min): 200 ± 16 nmol/mL | Trp/LNAA (glucose 6 g, 120 min): .086 | Plasma Iso level (glucose 12.5 g, 0 min): 65 ± 5 nmol/mL | Plasma LNAA (sum) (glucose 12.5 g, 0 min): 574 ± 15 nmol/mL | Plasma Leu level (glucose 12.5 g, 0 min): 117 ± 10 nmol/mL | Plasma Met level (glucose 12.5 g, 0 min): 27 ± 2 nmol/mL | Plasma Phe level (glucose 12.5 g, 0 min): 54 ± 4 nmol/mL | Plasma Trp level (glucose 12.5 g, 0 min): 45 ± 2 nmol/mL | Plasma Tyr level (glucose 12.5 g, 0 min): 58 ± 4 nmol/mL | Plasma Val level (glucose 12.5 g, 0 min): 255 ± 47 nmol/mL | Trp/LNAA (glucose 12.5 g, 0 min): .079 | Plasma Iso level (glucose 12.5 g, 60 min): 53 ± 4 nmol/mL | Plasma LNAA (sum) (glucose 12.5 g, 60 min): 501 ± 66 nmol/mL | Plasma Leu level (glucose 12.5 g, 60 min): 96 ± 10 nmol/mL | Plasma Met level (glucose 12.5 g, 60 min): 25 ± 1 nmol/mL | Plasma Phe level (glucose 12.5 g, 60 min): 50 ± 3 nmol/mL | Plasma Trp level (glucose 12.5 g, 60 min): 40 ± 1 nmol/mL | Plasma Tyr level (glucose 12.5 g, 60 min): 52 ± 3 nmol/mL | Plasma Val level (glucose 12.5 g, 60 min): 226 ± 48 nmol/mL | Trp/LNAA (glucose 12.5 g, 60 min): .080 | Plasma Iso level (glucose 12.5 g, 120 min): 48 ± 3 nmol/mL | Plasma LNAA (sum) (glucose 12.5 g, 120 min): 582 ± 49 nmol/mL | Plasma Leu level (glucose 12.5 g, 120 min): 95 ± 9 nmol/mL | Plasma Met level (glucose 12.5 g, 120 min): 23 ± 1 nmol/mL | Plasma Phe level (glucose 12.5 g, 120 min): 46 ± 2 nmol/mL | Plasma Trp level (glucose 12.5 g, 120 min): 41 ± 1 nmol/mL | Plasma Tyr level (glucose 12.5 g, 120 min): 50 ± 3 nmol/mL | Plasma Val level (glucose 12.5 g, 120 min): 221 ± 98 nmol/mL | Trp/LNAA (glucose 12.5 g, 120 min): .084
